{
  "source": "ChEMBL document CHEMBL1121538",
  "about": "“Nucleosides. 116. 1-(beta-D-Xylofuranosyl)-5-fluorocytosines with a leaving group on the 3' position. Potential double-barreled masked precursors of anticancer nucleosides” (1980)",
  "format_in_all_cases": "functional",
  "details_in_all_cases": "read-out: ID50 (the source's name)",
  "key": {"P815 [1]": {"tested_on": "P815", "assay": "The compound was tested for anticancer activity against P815([…] resistant) cell lines of mouse leukemia"}, "P815 [2]": {"tested_on": "P815", "assay": "The compound was tested for anticancer activity against P815 (sensitive) cell lines of mouse leukemia"}, "L5178Y [3]": {"tested_on": "L5178Y", "assay": "The compound was tested for anticancer activity against L5178Y (sensitive) cell lines of mouse leukemia"}, "L5178Y [4]": {"tested_on": "L5178Y", "assay": "The compound was tested for anticancer activity against L5178Y ([…] resistant) cell lines of mouse leukemia"}},
  "data": [
    {"smiles": "Nc1ccn(C2OC(CO)C(Br)C2O)c(=O)n1", "note": "(stereo not drawn)", "values": [
      {"measurement": "IC50", "setting": "P815 [1]", "value": "> 100", "unit": "µg/mL"},
      {"measurement": "IC50", "setting": "P815 [2]", "value": 0.05, "unit": "µg/mL"},
      {"measurement": "IC50", "setting": "L5178Y [3]", "value": 0.03, "unit": "µg/mL"},
      {"measurement": "IC50", "setting": "L5178Y [4]", "value": "> 100", "unit": "µg/mL"}
    ]},
    {"smiles": "Nc1nc(=O)n(C2OC(CO)C(Br)C2O)cc1F", "note": "(stereo not drawn)", "values": [
      {"measurement": "IC50", "setting": "P815 [1]", "value": 5, "unit": "µg/mL"},
      {"measurement": "IC50", "setting": "P815 [2]", "value": 0.2, "unit": "µg/mL"},
      {"measurement": "IC50", "setting": "L5178Y [3]", "value": 0.06, "unit": "µg/mL"},
      {"measurement": "IC50", "setting": "L5178Y [4]", "value": 2.6, "unit": "µg/mL"}
    ]},
    {"smiles": "Nc1nc(=O)n(C2OC(CO)C(Cl)C2O)cc1F", "note": "(stereo not drawn)", "values": [
      {"measurement": "IC50", "setting": "P815 [1]", "value": "> 30", "unit": "µg/mL"},
      {"measurement": "IC50", "setting": "P815 [2]", "value": 0.7, "unit": "µg/mL"},
      {"measurement": "IC50", "setting": "L5178Y [3]", "value": 1, "unit": "µg/mL"},
      {"measurement": "IC50", "setting": "L5178Y [4]", "value": 71, "unit": "µg/mL"}
    ]},
    {"smiles": "Nc1ccn(C2OC(CO)C(Cl)C2O)c(=O)n1", "note": "(stereo not drawn)", "values": [
      {"measurement": "IC50", "setting": "P815 [1]", "value": "> 100", "unit": "µg/mL"},
      {"measurement": "IC50", "setting": "P815 [2]", "value": 0.8, "unit": "µg/mL"},
      {"measurement": "IC50", "setting": "L5178Y [3]", "value": 2, "unit": "µg/mL"},
      {"measurement": "IC50", "setting": "L5178Y [4]", "value": "> 100", "unit": "µg/mL"}
    ]},
    {"smiles": "Nc1ccn(C2OC(CO)C(I)C2O)c(=O)n1", "note": "(stereo not drawn)", "values": [
      {"measurement": "IC50", "setting": "P815 [1]", "value": "> 100", "unit": "µg/mL"},
      {"measurement": "IC50", "setting": "P815 [2]", "value": 0.3, "unit": "µg/mL"},
      {"measurement": "IC50", "setting": "L5178Y [3]", "value": 0.1, "unit": "µg/mL"},
      {"measurement": "IC50", "setting": "L5178Y [4]", "value": "> 100", "unit": "µg/mL"}
    ]},
    {"smiles": "Nc1ccn([C@@H]2O[C@H](CO)[C@H](F)[C@H]2O)c(=O)n1", "values": [
      {"measurement": "IC50", "setting": "P815 [1]", "value": "> 100", "unit": "µg/mL"},
      {"measurement": "IC50", "setting": "P815 [2]", "value": 21, "unit": "µg/mL"},
      {"measurement": "IC50", "setting": "L5178Y [3]", "value": 37, "unit": "µg/mL"},
      {"measurement": "IC50", "setting": "L5178Y [4]", "value": "> 100", "unit": "µg/mL"}
    ]},
    {"smiles": "CS(=O)(=O)O[C@@H]1[C@@H](O)[C@H](n2ccc(N)nc2=O)O[C@@H]1CO", "values": [
      {"measurement": "IC50", "setting": "P815 [1]", "value": 22, "unit": "µg/mL"},
      {"measurement": "IC50", "setting": "P815 [2]", "value": 0.03, "unit": "µg/mL"},
      {"measurement": "IC50", "setting": "L5178Y [3]", "value": 0.07, "unit": "µg/mL"},
      {"measurement": "IC50", "setting": "L5178Y [4]", "value": "> 100", "unit": "µg/mL"}
    ]},
    {"smiles": "Cc1ccc(S(=O)(=O)O[C@@H]2[C@@H](O)[C@H](n3cc(F)c(N)nc3=O)O[C@@H]2CO)cc1", "values": [
      {"measurement": "IC50", "setting": "P815 [1]", "value": 3.9, "unit": "µg/mL"},
      {"measurement": "IC50", "setting": "P815 [2]", "value": 0.02, "unit": "µg/mL"},
      {"measurement": "IC50", "setting": "L5178Y [3]", "value": 0.06, "unit": "µg/mL"},
      {"measurement": "IC50", "setting": "L5178Y [4]", "value": 8, "unit": "µg/mL"}
    ]},
    {"smiles": "Cc1ccc(S(=O)(=O)O[C@@H]2[C@@H](O)[C@H](n3ccc(N)nc3=O)O[C@@H]2CO)cc1", "values": [
      {"measurement": "IC50", "setting": "P815 [1]", "value": "> 30", "unit": "µg/mL"},
      {"measurement": "IC50", "setting": "P815 [2]", "value": 0.06, "unit": "µg/mL"},
      {"measurement": "IC50", "setting": "L5178Y [3]", "value": 0.08, "unit": "µg/mL"},
      {"measurement": "IC50", "setting": "L5178Y [4]", "value": "> 100", "unit": "µg/mL"}
    ]},
    {"smiles": "CS(=O)(=O)O[C@@H]1[C@@H](O)[C@H](n2cc(F)c(N)nc2=O)O[C@@H]1CO", "values": [
      {"measurement": "IC50", "setting": "P815 [1]", "value": 6, "unit": "µg/mL"},
      {"measurement": "IC50", "setting": "P815 [2]", "value": 0.02, "unit": "µg/mL"},
      {"measurement": "IC50", "setting": "L5178Y [3]", "value": 0.05, "unit": "µg/mL"},
      {"measurement": "IC50", "setting": "L5178Y [4]", "value": 5.3, "unit": "µg/mL"}
    ]},
    {"smiles": "Nc1nc(=O)n(C2OC(CO)C(I)C2O)cc1F", "note": "(stereo not drawn)", "values": [
      {"measurement": "IC50", "setting": "P815 [1]", "value": 8, "unit": "µg/mL"},
      {"measurement": "IC50", "setting": "P815 [2]", "value": 0.1, "unit": "µg/mL"},
      {"measurement": "IC50", "setting": "L5178Y [3]", "value": 0.08, "unit": "µg/mL"},
      {"measurement": "IC50", "setting": "L5178Y [4]", "value": 10, "unit": "µg/mL"}
    ]},
    {"smiles": "Nc1ccn([C@@H]2O[C@H](CO)[C@@H](O)[C@@H]2O)c(=O)n1", "note": "[CYTARABINE]", "values": [
      {"measurement": "IC50", "setting": "P815 [1]", "value": 40, "unit": "µg/mL"},
      {"measurement": "IC50", "setting": "P815 [2]", "value": 10, "unit": "µg/mL"},
      {"measurement": "IC50", "setting": "L5178Y [3]", "value": 20, "unit": "µg/mL"},
      {"measurement": "IC50", "setting": "L5178Y [4]", "value": 79, "unit": "µg/mL"}
    ]}
  ]
}
